Read-outs that look alike come from different tables or passages of the source.
Columns and labels:
NCIH460 (lung) cells = assay: Anti-cancer screen (MTT), NCIH460; format: cell-based; settings: Homo sapiens; for GI50: read-out: Cell growth inhibition NCIH460 (Lung) GI50; for LC50: read-out: Cell growth inhibition NCIH460 (Lung) LC50; for IC (TGI): read-out: Cell growth inhibition NCIH460 (Lung) TGI
Method: (§1) Experimental drugs were screened for anti-cancer activity in three cell lines using five concentrations for each compound. The cell lines —HCT 116 (colon), NCIH460 (lung) and U251 (glioma) were maintained in DMEM containing 10% fetal bovine serum. 96-well microtiter plates are inoculated with cells in 100 μL of cell suspension (5×10^4 cells/mL) for 24 hours at 37° C., 5% CO2, 95% air and 100% relative humidity. A separate plate with these cell lines is also inoculated to determine cell viability before the addition of the compounds (T0).
(§2) Following 24-hours incubation, test compounds were added to the 96 well plates. Each plate contains one of the above cell lines and the following samples in triplicate: five different dilutions (0.01, 0.1, 1, 10 and 100 μM) of four test compounds, appropriate dilutions of a cytotoxic standard and growth medium (untreated) wells. Test compounds were dissolved in DMSO to prepare 20 mM stock solutions on the day of drug addition and serial dilutions were carried out in complete growth medium at 2× strength such that 100 μL added to wells gave final concentrations (0.01, 0.1, 1, 10 and 100 μM) in the well. SAHA was used as standard drug in these experiments.
(§3) For T0 measurement, 24 hours after seeding the cells, 20 μL of 3-(4,5-dimethyl-2-thiazolyl)-2,5-diphenyl-2H-tetrazolium (MTT) solution per well was added to the ‘T0’ plate and incubated for 3 hours at 37° C. in a CO2 incubator. The plate containing cells and test compounds was treated similarly after 48 hours of incubation. After 3 hours of MTT addition, well contents were aspirated carefully followed by addition of 150 μL DMSO per well. Plates were agitated to ensure dissolution of the formazan crystals in DMSO and absorbance was read at 570 nm (A570).
(§4) (Mosmann T. Rapid colorimetric assay for cellular growth and survival: application to proliferation and cytotoxicity assays. J Immunol Methods 1983; 65(1-2): 55-63; Anne Monks et al. Feasibility of high-flux anticancer drug screen using a diverse panel of cultured human tumor cell lines”. JNCI, Vol. 83, No. 11, 1991).

HCT 116 (colon) cells = assay: Anti-cancer screen (MTT), HCT 116; format: cell-based; settings: Homo sapiens; for GI50: read-out: Cell growth inhibition HCT116 (Colon) GI50; for CC50: read-out: Cell growth inhibition HCT116 (Colon) LC50; for IC (TGI): read-out: Cell growth inhibition HCT116 (Colon) TGI
Method: as §1, §2, §3, §4

[1] = tested on: HDAC (Mouse Liver Extract); assay: HDAC inhibition assay using Boc-Lys(Ac)-AMC substrate; format: biochemical; settings: mouse liver enzyme
Method: Inhibition of HDAC has been implicated to modulate transcription and to induce apoptosis or differentiation in cancer cells. The fluorometric assay provides a fast and fluorescence based method that eliminates radioactivity, extractions or chromatography, as used in traditional assays. The assay is based on two steps. First, the HDAC fluorometric substrate, which comprises an acetylated lysine side chain, is incubated with a sample containing HDAC activity (Mouse Liver Extract). Deacetylation of the substrate sensitizes the substrate, in the second step; treatment with the Trypsin stop solution produces a fluorophore that can be easily analyzed using fluorescence plate reader. Assay was done in 96-well black microplate and total volume of the assay was […]. […] The plate was pre-incubated at 37° C. for 5 minutes. […] The plate was incubated at 37° C. for 30 min. The reaction was stopped by adding 100 μL, of Trypsin stop solution and incubating at 37° C. for 15-30 min. Measuring the fluorescence at excitation wavelength of 360 nm and emission wavelength of 460 nm monitored the release of AMC. Buffer alone and substrate alone served as blank. […] (Dennis Wegener et al, Anal. Biochem, 321, 2003, 202-208).

U251 (glioma) cells = assay: Anti-cancer screen (MTT), U251; format: cell-based; settings: Homo sapiens; for GI50: read-out: Cell growth inhibition U251 (Glioma) GI50; for LC50 (concentration giving 50% net cell kill relative to the time-zero cell count): read-out: Cell growth inhibition U251 (Glioma) LC50; for IC (TGI): read-out: Cell growth inhibition U251 (Glioma) TGI
Method: as §1, §2, §3, §4

[2] = tested on: NCIH460, HCT116 and U251 cells; assay: Anti-cancer screen, mean GI50 over cell lines; format: cell-based; settings: read-out: Cell growth inhibition Mean GI50
Method: as §1, §2, §3, §4

[3] = NCI-H460, NCIH460, 48 hours, MTT

| SMILES | HDAC inhibition % (1 μM) [1] | HDAC inhibition % (10 μM) [1] | IC50 [1] | GI50 (NCIH460 (lung) cells; [3]) | LC50 (NCIH460 (lung) cells; [3]) | IC (TGI) (NCIH460 (lung) cells; [3]) | GI50 (HCT 116 (colon) cells; HCT-116, HCT116, 48 hours, MTT) | CC50 (HCT 116 (colon) cells; HCT-116, HCT116, 48 hours, MTT) | IC (TGI) (HCT 116 (colon) cells; HCT-116, HCT116, 48 hours, MTT) | GI50 (U251 (glioma) cells; U-251, U251, 48 hours, MTT) | LC50 (concentration giving 50% net cell kill relative to the time-zero cell count) (U251 (glioma) cells; U-251, U251, 48 hours, MTT) | IC (TGI) (U251 (glioma) cells; U-251, U251, 48 hours, MTT) | GI50 ([2]; mean over cell lines) | further results |
| --- | --- | --- | --- | --- | --- | --- | --- | --- | --- | --- | --- | --- | --- | --- |
| CSc1ccc(/C=C(/C(=O)NCCCCCC(=O)NO)c2ccc(C)cc2)cc1 [Compound 96, 6-(2-(4-Methylphenyl)-3-(4-methylthiophenyl)acrylamido)-N-hydroxy hexanamide] | 84.1% | 98.5% | 0.01 µM | – | – | – | – | – | – | – | – | – | – | GI50 (NCIH460 (lung) cells; NCI-H460, 48 h): 8 µM; LC50 (NCIH460 (lung) cells; NCI-H460, 48 h): 60 µM; IC (TGI) (NCIH460 (lung) cells; NCI-H460, 48 h): 21 µM; GI50 (HCT 116 (colon) cells; HCT-116, 48 h): 6 µM; CC50 (HCT 116 (colon) cells; HCT-116, 48 h): > 100 µM; IC (TGI) (HCT 116 (colon) cells; HCT-116, 48 h): 27 µM; GI50 (U251 (glioma) cells; U-251, 48 h): 8 µM; LC50 (concentration giving 50% net cell kill relative to the time-zero cell count) (U251 (glioma) cells; U-251, 48 h): 60 µM; IC (TGI) (U251 (glioma) cells; U-251, 48 h): 22 µM; GI50 [2]: 7.3 µM |
| CS(=O)(=O)c1ccc(/C=C(/C(=O)NCCCCCC(=O)Nc2ccccc2N)c2ccc(F)cc2)cc1 [Compound 97, N-(2-Aminophenyl)-6-(2-(4-fluorophenyl)-3-(4-methylsulfonyllphenyl)acrylamido)hexanamide] | 10.2% | 34.2% | – | 56 µM | > 100 µM | > 100 µM | 6.8 µM | > 100 µM | 85 µM | 6.5 µM | 87 µM | 44 µM | 23.1 µM | – |
| COc1ccc(/C=C(/C(=O)NCc2ccc(C(=O)Nc3ccccc3N)cc2)c2cccs2)cc1OC [Compound 37, N-(2-Aminophenyl)-4-((3-(3,4-dimethoxyphenyl)-2-(thiophen-2-yl)acrylamido)methyl)benzamide] | 31.7% | 59.9% | 5 µM | 2 µM | 100 µM | 6 µM | 1.1 µM | 80 µM | 6 µM | 2.6 µM | 51 µM | 7 µM | 1.9 µM | – |
| COc1ccc(/C=C(/C(=O)NCc2ccc(/C=C/C(=O)NO)cc2)c2ccc(F)cc2)cc1OC [Compound 77, (1E)-N-(4-(3-(Hydroxyamino)-3-oxoprop-1-enyl)benzyl)-2-(4-fluorophenyl)-3-(3,4-dimethoxyphenyl)acrylamide] | 90.6% | 98.5% | 0.05 µM | 2 µM | > 100 µM | 70 µM | 0.5 µM | 50 µM | 6 µM | 2.6 µM | > 100 µM | 19 µM | 1.7 µM | – |
| COc1cc(/C=C(/C(=O)NCCCCCC(=O)NO)c2ccc(F)cc2)ccc1F [Compound 91, 6-(2-(4-Fluorophenyl)-3-(4-fluoro-3-methoxyphenyl)acrylamido)-N-hydroxy hexanamide] | 80.8% | 97.3% | – | 46 µM | > 100 µM | > 100 µM | 19 µM | > 100 µM | > 100 µM | 2 µM | 92 µM | 30 µM | 22.3 µM | – |
| Nc1ccccc1NC(=O)c1ccc(CNC(=O)/C(=C/c2c(F)cc(F)cc2F)c2ccc(F)cc2)cc1 [Compound 13, N-(2-Aminophenyl)-4-((3-(2,4,6-trifluorophenyl)-2-(4-fluorophenyl)acrylamido)methyl)benzamide] | 9.4% | 18.2% | – | 34 µM | 93 µM | 66 µM | 8.9 µM | 90 µM | 50 µM | 3.4 µM | 48 µM | 8 µM | 15.4 µM | – |
| COc1cc(/C=C(/C(=O)NCc2ccc(C(=O)Nc3ccccc3N)cc2)c2ccc(F)cc2)ccc1F [Compound 20, N-(2-Aminophenyl)-4-((3-(4-fluoro-3-methoxyphenyl)-2-(4-fluorophenyl)acrylamido)methyl)benzamide] | 45.1% | 46.2% | – | 7.5 µM | – | 18 µM | 0.3 µM | 80 µM | 20 µM | 1.7 µM | – | 3.5 µM | 3.2 µM | – |
| O=C(NCc1ccc(C(=O)NO)cc1)/C(=C/c1ccc(F)cc1)c1ccccc1 [Compound 51, 4-((2-(Phenyl)-3-(4-fluorophenyl)acrylamido)methyl)-N-hydroxybenzamide] | 74.5% | 90.8% | – | 24 µM | 86 µM | 60 µM | 7.5 µM | 83 µM | 36 µM | 6 µM | 72 µM | 48 µM | 12.5 µM | – |
| Nc1ccccc1NC(=O)c1ccc(CNC(=O)/C(=C/c2ccc(F)c(F)c2)c2ccc(F)cc2)cc1 [Compound 1, N-(2-Aminophenyl)-4-((3-(3,4-difluorophenyl)-2-(4-fluorophenyl)acrylamido)methyl)benzamide] | 1.2% | 27.8% | – | 2.3 µM | 52 µM | 5.4 µM | 2.2 µM | 27 µM | 4.9 µM | 2.8 µM | 35 µM | 4.2 µM | 2.4 µM | – |
| CSc1ccc(/C=C(/C(=O)NCc2ccc(C(=O)Nc3ccccc3N)cc2)c2ccccc2F)cc1 [Compound 24, N-(2-Aminophenyl)-4-((3-(4-methylthiophenyl)-2-(2-fluorophenyl)acrylamido)methyl)benzamide] | 41.3% | 51.4% | – | 5 µM | – | 32 µM | 3.8 µM | > 100 µM | 12 µM | 8.5 µM | – | 30 µM | 5.8 µM | – |

Source: US8476255B2, “Histone deacetylase inhibitors” (Orchid Chemicals & Pharmaceuticals Limited, priority 2007, dated 2013)
